# Where two headings read alike, the source gives them in different places.
# Experiments:
# [1] = test system: S. aureus 10-81; assay: In vitro antibacterial MIC/MBC test; assay type: cell-based; conditions: Staphylococcus aureus, 1081
# Method: (§1) Win 52,522 and Win 35,439 were solubilized in 0.1 ml of 0.5 N NaOH/mg of compound and diluted in sterile distilled water to 160 mcg/ml. Vancomycin and methicillin were solubilized in sterile distilled water to 1250 mcg/ml of base compound. The stock solutions were sterilized by filtration through membrane filters with a 0.45 μm pore size.
# (§2) The bacterial cultures listed in Table I (hereinbelow) were grown overnight at 37° C. in MHB for all cultures except the Streptococcus strains. These were grown in BHI+10% NHS. The overnight broth cultures were adjusted to an optical density of 0.10 (650 nm, B L Spectronic 20) in sterile distilled water and subsequently diluted to 6.7×10^6 cells/ml in MHB or BHI+1% NHS.
# (§3) Serial two-fold dilutions of the compound solutions were prepared in MHB (or in BHI+1% NHS for tests with Streptococci) and dispensed into 96-well microtiter trays in a volume of 0.1 ml/well using a Sandy Springs (Bellco Glass Co.) dispenser. The trays were then inoculated with 0.0015 ml of a suspension containing 6.7×10^6 cells/ml of the appropriate inoculum using a MIC-2000 inoculator (Dynatech Corp.) resulting in a final inoculum of approximately 1×10^4 cells/well or 1×10^5 cells/ml. The trays were incubated at 37° C. for 18-20 hours and the minimal inhibitory concentration (MIC), defined as the lowest concentration of compound to inhibit visible bacterial growth, was recorded.
# (§4) After the MIC values were recorded, the contents in the microtiter trays were thoroughly mixed on a Bellco Mini-orbital Shaker (Bellco Glass Co.) for 3 min. at a setting of 8. A portion (0.0015 ml) from each well was then transferred via an MIC-2000 inoculator to plates containing MHA or BHI agar+10% NHS. The plates were incubated at 37° C. for 18-20 hrs. The minimal bactericidal concentration (MBC), defined as the lowest concentration of compound that prevented the formation of a recognizable colony on the agar surface, was recorded.
# [2] = test system: S. aureus 21-81A; assay: In vitro antibacterial MIC/MBC test; assay type: cell-based; conditions: Staphylococcus aureus, 2181A
# Method: as §1, §2, §3, §4
# [3] = test system: S. aureus 59-81; assay: In vitro antibacterial MIC/MBC test; assay type: cell-based; conditions: Staphylococcus aureus, 5981
# Method: as §1, §2, §3, §4
# [4] = test system: S. aureus Smith; assay: In vitro antibacterial MIC/MBC test; assay type: cell-based; conditions: Staphylococcus aureus
# Method: as §1, §2, §3, §4
# [5] = test system: S. enterococcus 0-2-13; assay: In vitro antibacterial MIC/MBC test; assay type: cell-based; conditions: Enterococcus, 0213
# Method: as §1, §2, §3, §4
# [6] = test system: S. epidermidis 2-1-B; assay: In vitro antibacterial MIC/MBC test; assay type: cell-based; conditions: Staphylococcus epidermidis, 21B
# Method: as §1, §2, §3, §4
# [7] = test system: S. pneumoniae Type I; assay: In vitro antibacterial MIC/MBC test; assay type: cell-based; conditions: Streptococcus pneumoniae
# Method: as §1, §2, §3, §4
# [8] = test system: S. aureus; assay: In vitro MIC/MBC summary (Table II); assay type: cell-based; conditions: Staphylococcus aureus, 15 S. aureus strains
# Method: as §1, §2, §3, §4
# [9] = test system: Streptococcus sp.; assay: In vitro MIC/MBC summary (Table II); assay type: cell-based; conditions: Streptococcus
# Method: as §1, §2, §3, §4
# [10] = test system: S. edidermidis; assay: In vitro MIC/MBC summary (Table II); assay type: cell-based, S. epidermidis; conditions: Staphylococcus epidermidis
# Method: as §1, §2, §3, §4
# [11] = test system: Staphylococcus aureus Smith; assay: Mouse protection test, S. aureus Smith infection, single dose; assay type: in vivo, ICR mice; Staphylococcus aureus; conditions: for Survivors/Total: single dose
# Method: (§5) ICR mice, female, 18-20 grams each.
# (§6) Solutions of Win 52,522 and Win 35,439 were prepared by dissolving the appropriate weight of drug in 0.3 to 0.4 ml of 1 N NaOH and then bringing the solutions to the desired volume with distilled water. Methicillin and vancomycin were dissolved directly in distilled water.
# Two and one-half ml of pool were added to 247.5 ml of 5% gastric mucin to provide the test inoculum containing 2.1×10^4 cells/ml.
# (§7) Mice were inoculated intraperitoneally with 0.5 ml of the bacterial test inoculum.
# 1. Single dose test--Mice were medicated subcutaneously or orally once (0.5 ml) one-half hour postinfection.
# (§8) Deaths were recorded daily for seven days for all tests. Fifty percent protective dose values (PD50's) were calculated using probit analysis [SAS Users Guide: Statistics, 1982 Edition, SAS Institute, Inc., Cary, N.C.].
# [12] = test system: Staphylococcus aureus 39881 (Methicillin-resistant); assay: Mouse protection test, S. aureus 39881 (methicillin-resistant) infection; assay type: in vivo, ICR mice; Staphylococcus aureus; conditions: for Survivors/Total: two doses
# Method: as §5, §6
# The culture was streaked onto three Brain Heart Infusion Agar plates and incubated 16 hours at 37° C. The cells were washed off each plate with five ml of saline and the cell suspension was shaken with glass beads for two minutes on a paint shaker. The suspension was diluted with saline so that a […] gave a 44% T reading on a B+L Spectronic 20 (650 nm) calibrated with saline. The stock suspension was diluted 1:24 (10 ml stock suspension+230 ml 5% mucin) to obtain the test inoculum containing 1.55×10^9 cells/ml.
# as §7
# Mice were medicated twice: at one-half and four hours postinfection. The drugs were administered by both subcutaneous (0.2 ml) and oral (0.5 ml) routes.
# as §8
# [13] = Staphylococcus aureus, sc, 168 h, read-out: Protective Dose 50% (95% Confidence Limits)
compound,measurement,setting,value
CN[C@H](CC(C)C)C(=O)N[C@H]1C(=O)N[C@@H](CC(N)=O)C(=O)N[C@H]2C(=O)N[C@H]3C(=O)N[C@H](C(=O)N[C@H](C(=O)O)c4cc(O)cc(O)c4-c4cc3ccc4O)[C@H](O)c3ccc(c(Cl)c3)Oc3cc2cc(c3O[C@@H]2O[C@H](CO)[C@@H](O)[C@H](O)[C@H]2O[C@H]2C[C@](C)(N)[C@H](O)[C@H](C)O2)Oc2ccc(cc2Cl)[C@H]1O [Vancomycin],MBC,[1],1 µg/mL
same,MIC,[1],1 µg/mL
same,MBC,[2],1 µg/mL
same,MIC,[2],0.5 µg/mL
same,MBC,[3],1 µg/mL
same,MIC,[3],1 µg/mL
same,MBC,[4],1 µg/mL
same,MIC,[4],1 µg/mL
same,MBC,[5],16 µg/mL
same,MIC,[5],0.25 µg/mL
same,MBC,[6],2 µg/mL
same,MIC,[6],1 µg/mL
same,MBC,[7],16 µg/mL
same,MIC,[7],16 µg/mL
same,MBC,[8]; read-out: MBC 50%,1 µg/mL
same,MBC,[8]; read-out: MBC 90%,1 µg/mL
same,MBC,[8]; read-out: MBC Range,0.5 to 1 µg/mL
same,MIC50,[8]; read-out: MIC 50%,1 µg/mL
same,MIC90,[8]; read-out: MIC 90%,1 µg/mL
same,MIC,[8]; read-out: MIC Range,0.5 to 1 µg/mL
same,MIC50,[9],2 µg/mL
same,MIC90,[9],16 µg/mL
same,MBC,[9]; read-out: MBC 50%,16 µg/mL
same,MBC,[9]; read-out: MBC 90%,> 125 µg/mL
same,MIC,[9]; read-out: MIC Range,0.06 to 16 µg/mL
same,MIC50,[10],1 µg/mL
same,MIC90,[10],1 µg/mL
same,MBC,[10]; read-out: MBC 50%,1 µg/mL
same,MBC,[10]; read-out: MBC 90%,2 µg/mL
same,MBC,[10]; read-out: MBC Range,1 to 2 µg/mL
same,MIC,[10]; read-out: MIC Range,1 to 2 µg/mL
same,Survivors/Total,[11]; 0.78 mg/kg sc,2/10
same,Survivors/Total,[11]; 1.56 mg/kg sc,9/10
same,Survivors/Total,[11]; 3.13 mg/kg sc,9/10
same,Survivors/Total,[11]; 6.25 mg/kg sc,10/10
same,Survivors/Total,[11]; 12.5 mg/kg sc,10/10
same,ED50,[11]; [13],1.1 mg/kg
same,Survivors/Total,[12]; 6.25 mg/kg sc,0/10
same,Survivors/Total,[12]; 12.5 mg/kg sc,1/10
same,Survivors/Total,[12]; 25 mg/kg sc,9/10
same,Survivors/Total,[12]; 50 mg/kg sc,10/10
same,ED50,[12]; [13],17.7 mg/kg

# — patent US4698350A, “1-ethyl-6-fluoro-1,4-dihydro- 7-(2,6-dimethyl-4-pyridinyl)-4-oxo-3-quinolinecarboxylic acid and antibacterial use thereof” (Sterling Drug Inc., priority 1984, dated 1987)
